Data from the supplement of paper PMC10307832.

Legend:
Experiment in all cases: relative viability (nuclei count vs DMSO), 5 days (fraction); higher = more cells survive
Metformin + Lapatinib = compound: CN(C)C(=N)NC(=N)N [Metformin] + CS(=O)(=O)CCNCc1ccc(-c2ccc3ncnc(Nc4ccc(OCc5cccc(F)c5)c(Cl)c4)c3c2)o1 [Lapatinib] (partner 2 µM)
Procedure, shortened: (§1)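 Values are medians from duplicate plates. Each reflects relative viability, defined as the nuclei count of treated wells over that of vehicle wells. Lung cancer cell lines in 1536-well plates were pin-tool dosed one day after seeding with one drug alone or with a fixed anchor-drug dose plus five library-drug doses (not always all listed) in √10 steps, then fixed, stained and imaged at 4× after 5 days.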

Apatinib + Palbociclib = compound: N#CC1(c2ccc(NC(=O)c3cccnc3NCc3ccncc3)cc2)CCCC1 [Apatinib] + CC(=O)c1c(C)c2cnc(Nc3ccc(N4CCNCC4)cn3)nc2n(C2CCCC2)c1=O [Palbociclib] (partner 0.5 µM)
Procedure, shortened: as §1

Apatinib + Luminespib = compound: N#CC1(c2ccc(NC(=O)c3cccnc3NCc3ccncc3)cc2)CCCC1 [Apatinib] + CCNC(=O)c1noc(-c2cc(C(C)C)c(O)cc2O)c1-c1ccc(CN2CCOCC2)cc1 [Luminespib] (partner 0.01 µM)
Procedure, shortened: as §1

Apatinib + Phenformin = compound: N#CC1(c2ccc(NC(=O)c3cccnc3NCc3ccncc3)cc2)CCCC1 [Apatinib] + N=C(N)NC(=N)NCCc1ccccc1 [Phenformin] (partner 250 µM)
Procedure, shortened: as §1

Cell Line | relative viability (Metformin + Lapatinib; first compound 10 µM) | relative viability (Metformin + Lapatinib; first compound 31.62 µM) | relative viability (Metformin + Lapatinib; first compound 316.23 µM) | relative viability (Metformin + Lapatinib; first compound 1000 µM) | relative viability (Metformin + Lapatinib; first compound 100 µM) | relative viability (Apatinib + Palbociclib; first compound 0.08 µM) | relative viability (Apatinib + Palbociclib; first compound 0.8 µM) | relative viability (Apatinib + Palbociclib; first compound 2.53 µM) | relative viability (Apatinib + Palbociclib; first compound 8 µM) | relative viability (Apatinib + Luminespib; first compound 0.08 µM) | relative viability (Apatinib + Luminespib; first compound 0.253 µM) | relative viability (Apatinib + Luminespib; first compound 0.8 µM) | relative viability (Apatinib + Luminespib; first compound 2.53 µM) | relative viability (Apatinib + Luminespib; first compound 8 µM) | relative viability (Apatinib + Phenformin; first compound 0.08 µM) | relative viability (Apatinib + Phenformin; first compound 0.253 µM) | relative viability (Apatinib + Phenformin; first compound 0.8 µM) | relative viability (Apatinib + Phenformin; first compound 2.53 µM) | relative viability (Apatinib + Phenformin; first compound 8 µM) | relative viability (Apatinib + Palbociclib; first compound 0.253 µM)
IA-LM | 1.13 | 0.944 | 0.886 | 1.21 | – | – | – | – | – | – | – | – | – | – | – | – | – | – | – | –
NCI-H727 | 0.863 | 0.917 | 0.728 | 0.884 | 0.615 | 0.731 | 0.642 | 0.653 | 0.714 | 0.307 | 0.31 | 0.393 | 0.387 | 0.233 | 0.566 | 0.542 | 0.528 | 0.539 | 0.514 | –
NCI-H1975 | 0.98 | 1.27 | 1.05 | 1.06 | 0.935 | 0.654 | 0.597 | 0.522 | 0.526 | 0.167 | 0.195 | 0.229 | 0.176 | 0.262 | 0.425 | 0.387 | 0.382 | 0.389 | 0.433 | 0.634
NCI-H2085 | 0.716 | 0.805 | 0.725 | 0.868 | 0.801 | 0.469 | 0.487 | 0.416 | 0.437 | 0.396 | 0.527 | 0.429 | 0.421 | 0.361 | 0.707 | 0.715 | 0.752 | 0.65 | 0.656 | 0.493
Calu-6 | 0.864 | 1.03 | 0.913 | 1.03 | 0.979 | – | – | – | – | – | – | – | – | – | – | – | – | – | – | –
LC-2-ad | – | 1.03 | 0.799 | 1 | 0.853 | 0.476 | 0.516 | 0.436 | 0.356 | 1.08 | 1.16 | 1.01 | 1.01 | 0.917 | 0.539 | 0.579 | 0.517 | 0.539 | 0.582 | 0.501
SW 900 | – | – | – | – | – | 0.616 | 0.558 | 0.478 | 0.435 | 0.171 | 0.178 | 0.175 | 0.185 | 0.177 | 0.714 | 0.606 | 0.54 | 0.362 | 0.425 | 0.548
HCC-827 | – | 0.216 | 0.232 | 0.18 | 0.185 | 0.444 | 0.402 | 0.391 | 0.357 | 0.765 | 0.704 | 0.391 | 0.777 | 0.566 | 0.4 | 0.406 | 0.212 | 0.382 | 0.351 | 0.444
EMC-BAC-2 | 0.886 | 0.951 | 0.843 | 0.925 | 0.891 | 0.518 | 0.506 | 0.449 | 0.412 | 1.22 | 1.29 | 1.14 | 1.09 | 0.987 | 0.578 | 0.568 | 0.463 | 0.383 | 0.39 | 0.536
NCI-H322M | 0.589 | 0.598 | 0.614 | 0.585 | 0.688 | 0.464 | 0.499 | 0.51 | 0.57 | 0.871 | 0.845 | 0.9 | 1.01 | 1.07 | 0.831 | 0.76 | 0.778 | 0.814 | 0.784 | 0.539
